From publication PMC5559328 (Clinical cancer research : an official journal of the …, 2017)
Structures can show the parent of a compound that is named as a salt. Where two headings read alike, the source gives them in different places.

Columns and labels:
[1] = Plasma drug exposure of ABC294640; type: in vivo, human; settings: for Trough drug level: Day 28 prior to drug administration; for AUC(0-inf) / AUC(0-t): oral
[2] = system: patients with advanced solid tumors; parameters: species or system human; settings: in vivo
SK2 = settings: ref [17], [21], cited from earlier work
[3] = system: plasma S1P and dihydroC16-ceramide; test: Plasma sphingolipid pharmacodynamics; type: in vivo, human
[4] = cited from earlier work
tumors = settings: mouse models; ref [21]; cited from earlier work
plasma S1P = settings: at therapeutically efficacious drug doses; ref [34]; cited from earlier work
[5] = 250 and 500 mg treatment groups

O=C(NCc1ccncc1)C12CC3CC(C1)CC(c1ccc(Cl)cc1)(C3)C2 [ABC294640, 4-pyridinylmethyl-3-(4-chlorophenyl)adamantinecarboxamide, hydrochloride salt]
Trough drug level ([1]; 250 mg bid, n=3): 0.29 ± 0.15 µg/mL | Trough drug level ([1]; 250 mg qd, n=5): 0.20 ± 0.34 µg/mL | Ratio AUC0-T at Day 28 to AUCINF at Day 1 ([1]; 500 mg bid): 1.25 | Trough drug level ([1]; 500 mg bid, n=5): 1.82 ± 0.85 µg/mL | Ratio AUC0-T at Day 28 to AUCINF at Day 1 ([1]; 750 mg bid): 1.85 | Trough drug level ([1]; 750 mg bid, n=1): 4.48 µg/mL | AUC(0-inf) ([1]; human, plasma, 250 mg): 15200 ± 8230 ng·h/mL | AUC(0-t) ([1]; human, plasma, 250 mg): 17800 ± 15200 ng·h/mL | AUC(0-inf) ([1]; human, plasma, 500 mg): 40700 ± 28000 ng·h/mL | AUC(0-t) ([1]; human, plasma, 500 mg): 50800 ± 11300 ng·h/mL | Tmax ([1]; human, plasma, po): 1 to 2 h | half-life ([1]; human, plasma, po): 5 to 15 h | Patients with psychiatric disorders ([2]; human): 2 patients | Patients with treatment-related nervous system disorders ([2]; human): 6 patients | Fatigue (treatment-related adverse event) ([2]; human, 28 day): 0 n (%) | Creatinine Increase (treatment-related adverse event) ([2]; human, 28 days): 0 n (%) | Fatigue (treatment-related adverse event) ([2]; human, 28 days): 5 (24) n (%) | Hyperbilirubinemia (treatment-related adverse event) ([2]; human, 28 days): 0 n (%) | Vision Change (treatment-related adverse event) ([2]; human, 28 days): 0 n (%) | Recommended Phase II Dose ([2]; human, po, 28 day cycles, continuous): 500 mg bid | Tolerability of dose level [2]: not to be tolerable | Ki (SK2; read-out: Ki, SK2): 9 µM | Ki, SK2 (SK2): 3.4 µg/mL | Mode of SK2 inhibition (SK2): competitive with respect to sphingosine | Maximum plasma S1P decrease ([3]; 250 mg (Days 1 and 28, 250 mg qd with 250 mg bid combined), n=10): 51±6% | Maximum plasma S1P decrease ([3]; 500 mg (Days 1 and 28 combined), n=5): 46±9% | Maximum plasma S1P decrease ([3]; 750 mg (Days 1 and 28 combined), n=2): 54±14% | Time of maximum elevation of plasma dihydroC16-ceramide [3, 5]: 8 to 12 h | Time of return of plasma dihydroC16-ceramide to baseline [3, 5]: 24 h | Time of minimum plasma S1P level after treatment ([3]; patients, all doses): 12 h | Time of recovery of plasma S1P to baseline ([3]; patients, all doses): ≤ 24 h | half-life ([4]; across several species, extensive preclinical work): approximately 4 hours | Half-life predicted by animal data ([4]; animal data): ~ 4.5 hours | Dose at which single-agent antitumor activity is typically apparent (tumors): ≥ 25 mg/kg/day | Reduction of plasma S1P levels (plasma S1P): up to 50%
